Assay results reported in ChEMBL document CHEMBL3856189, “Synthesis of novel diterpenoid analogs with in-vivo antitumor activity” (Eur J Med Chem, 2016).

Experiments:
[1] = Antiproliferative activity against human T47D cells after 96 hrs by SRB assay; assay type: functional, cell-based
[2] = Antiproliferative activity against human MDA-MB-231 cells after 96 hrs by SRB assay; assay type: functional, cell-based; conditions: MDA-MB-231, 96 h
[3] = Antiproliferative activity against human MCF7 cells after 96 hrs by SRB assay; assay type: functional, cell-based; conditions: MCF7, 96 h
MCF7 = test: Selectivity index, ratio of IC50 for HAF cells to IC50 for human MCF7 cells; assay type: functional
[4] = Antiproliferative activity against HAF cells after 96 hrs by SRB assay; assay type: cell-based; conditions: Homo sapiens
[5] = Antiproliferative activity against human HL60 cells after 96 hrs by SRB assay; assay type: functional, cell-based; conditions: HL-60, 96 h
[6] = Antiproliferative activity against human PC3 cells after 96 hrs by SRB assay; assay type: functional, cell-based; conditions: PC-3, 96 h
[7] = Selectivity index, ratio of IC50 for HAF cells to IC50 for human HT-29 cells; assay type: functional
PC-3 = test: Selectivity index, ratio of IC50 for HAF cells to IC50 for human PC3 cells; assay type: functional
T47D = test: Selectivity index, ratio of IC50 for HAF cells to IC50 for human T47D cells; assay type: functional
[8] = Selectivity index, ratio of IC50 for HAF cells to IC50 for human MDA-MB-231 cells; assay type: functional
[9] = Antiproliferative activity against human HT-29 cells after 96 hrs by SRB assay; assay type: functional, cell-based; conditions: HT-29, 96 h
[10] = Antiproliferative activity against human HCT116 cells after 96 hrs by SRB assay; assay type: functional, cell-based; conditions: HCT-116, 96 h
HCT-116 = test: Selectivity index, ratio of IC50 for HAF cells to IC50 for human HCT116 cells; assay type: functional
[11] = Antiproliferative activity against human DU145 cells after 96 hrs by SRB assay; assay type: functional, cell-based; conditions: DU-145, 96 h
HL-60 = test: Selectivity index, ratio of IC50 for HAF cells to IC50 for human HL60 cells; assay type: functional
DU-145 = test: Selectivity index, ratio of IC50 for HAF cells to IC50 for human DU145 cells; assay type: functional

Row | SMILES | IC50 [1] [nM] | IC50 [2] [nM] | IC50 [3] [nM] | further results
1 | COc1cc2c(cc1C(=O)Nc1ccc(Cl)cc1)CC[C@H]1C(C)(C)[C@@H](O)CC[C@]21C | 150 | 1030 | 1460 | 
2 | COc1cc2c(cc1C(=O)N(C)C)CC[C@H]1C(C)(C)[C@@H](O)CC[C@]21C | > 25000 | > 25000 | > 25000 | 
3 | COc1cc2c(cc1C(=O)Oc1ccccc1)CC[C@H]1C(C)(C)[C@@H](O)CC[C@]21C | > 25000 | > 25000 | > 25000 | 
4 | COc1cc2c(cc1C(=O)Nc1ccc(O)cc1)CC[C@H]1C(C)(C)[C@@H](O)CC[C@]21C | 70 | 1900 | 3070 | 
5 | COc1cc2c(cc1C(=O)Nc1ccccc1F)CC[C@H]1C(C)(C)[C@@H](O)CC[C@]21C | > 25000 | > 25000 | > 25000 | 
6 | COc1cc2c(cc1C(=O)Nc1ccc(C)cc1)CC[C@H]1C(C)(C)[C@@H](O)CC[C@]21C | 230 | 1220 | 220 | Ratio IC50 (MCF7): 3.1; IC50 [4]: 3850 nM; IC50 [5]: 3520 nM; IC50 [6]: 1480 nM; Ratio IC50 [7]: 3.1; Ratio IC50 (PC-3): 3.1; Ratio IC50 (T47D): 3.1; Ratio IC50 [8]: 3.1; IC50 [9]: 280 nM; IC50 [10]: 940 nM; Ratio IC50 (HCT-116): 3.1; IC50 [11]: 2090 nM; Ratio IC50 (HL-60): 3.1; Ratio IC50 (DU-145): 3.1
7 | COc1cc2c(cc1C(=O)N(C)c1ccc(F)cc1)CC[C@H]1C(C)(C)[C@@H](O)CC[C@]21C | > 25000 | > 25000 | > 25000 | 
8 | COc1cc2c(cc1C(=O)NC1CCCCC1)CC[C@H]1C(C)(C)[C@@H](O)CC[C@]21C | 10900 | > 25000 | > 25000 | 
9 | COc1ccccc1NC(=O)c1cc2c(cc1OC)[C@@]1(C)CC[C@H](O)C(C)(C)[C@@H]1CC2 | 30 | 200 | 1960 | 
10 | COc1ccc(N(C)C(=O)c2cc3c(cc2OC)[C@@]2(C)CC[C@H](O)C(C)(C)[C@@H]2CC3)cc1 | 12700 | > 25000 | > 25000 | 
11 | COc1cc2c(cc1C(=O)Nc1ccccc1C)CC[C@H]1C(C)(C)[C@@H](O)CC[C@]21C | 510 | 2300 | 3560 | 
12 | COc1ccc(OC(=O)c2cc3c(cc2OC)[C@@]2(C)CC[C@H](O)C(C)(C)[C@@H]2CC3)cc1 | 5350 | 14300 | > 25000 | 
